Experimental data from publication PMC8009478, “Novel Curcumin-Diethyl Fumarate Hybrid as a Dualistic GSK-3β Inhibitor/Nrf2 Inducer for the Treatment of Parkinson’s Disease” (ACS Chemical Neuroscience, 2020).

Tests used:
SH-SY5Y cells = experiment: Neuroprotection against Aβ1–42 oligomers, MTT assay; type: cell-based, human; conditions: 5 μM for 24 h, then OAβ1–42 10 μM for 4 h
Experimental: Intracellular accumulation of soluble Aβ1–42 oligomers is responsible for neurotoxic effects, such as neuronal death, and represents a key event in AD pathogenesis.[33] […] Briefly, SH-SY5Y cells were incubated with 5 μM concentration of the selected analogues for 24 h, followed by OAβ1–42 oligomers treatment (10 μM) for 4 h (Figure 6A).
Figure 6 Effects of 4 and 5 on neurotoxicity induced by OAβ1–42 oligomers and 6-OHDA in SH-SY5Y cells. (A) Cells were incubated with 4 and 5 (5 μM, for 24 h) and then treated with OAβ1–42 (10 μM, for 4 h). (B) Cells were incubated with compounds 4 and 5 (5 μM, for 24 h), then treated with 6-OHDA (100 μM, for 2 h), and then starved in complete medium for 22 h. The neurotoxicity was evaluated by an MTT assay. Data are expressed as percentages of neurotoxicity versus cells treated with Aβ1–42 oligomers or 6-OHDA and reported as mean ± SEM of at least three independent experiments (* p < 0.05 versus cells treated with 6-OHDA at one-way ANOVA with the Dunnett post hoc test). […]
Then, cells were treated with Aβ1–42 oligomers for 4 h. The neuroprotective activity, in terms of an increase in intracellular MTT granules, was measured by an MTT assay, as previously described (see the Supporting Information for experimental details).[46]

[1] = test system: C. elegans BY250 [vtIs7 (Pdat-1:GFP)] CEP neurons; experiment: 6-OHDA-induced neurodegeneration of CEP neurons in the C. elegans model of PD; type: in vivo, Caenorhabditis elegans; conditions: cotreatment 5 μM with 6-OHDA 5 mM for 30 min, scored after 72 h
Text: The nematode Caenorhabditis elegans (C. elegans) has been increasingly employed as a genetically tractable in vivo model to study the molecular mechanisms involved in several NDDs due to a short life cycle, fast reproduction, and a highly conserved inheritance (genetic basis).[35] This invertebrate model offers the opportunity to take advantage of the significant conservation of genes and metabolic pathways common to both invertebrates and humans. At the neuronal level, the adult wild-type C. elegans organism contains only eight DA neurons that repeat the features of DA neurons of mammalian, making it possible to simplify the investigations considerably. In the transgenic BY250 [vtIs7 (Pdat-1:GFP)] strain, six DA neurons in the head, namely the four sensory cephalic (CEP) and the two anterior deirid (ADE) neurons, express the green fluorescent protein (GFP) and can be clearly visualized by fluorescence microscopy analysis and thus scored over time.[36] Indeed, in this model, investigations of DA neurons degeneration in vivo are feasible through a first exposition of the nematode to PD-inducing toxin, namely 6-OHDA, followed by direct visualization of the GFP-labeled DA neurons.[37] It is thus possible to screen small molecules for their anti-PD potential, in terms of rescue of the DA neurodegeneration phenotype manifested upon neurotoxin exposure, through visualization and scoring of the alterations of CEP neuron count or neuronal morphology. […] This effect makes it possible the identification of neuroprotective agents with the ability to activate Nrf2 through the inhibition of GSK-3.[38] The curcumin-DEF hybrids 4 and 5 were investigated in the above C. elegans model for their protective effects on 6-OHDA-induced degeneration of a subclass of DA neurons. Animals were incubated with 5 μM concentration of 4 and 5, in the presence of 5 mM of 6-OHDA, for 30 min. After 72 h, the animals were studied by examining the four CEP neurons. Degenerating CEP neurons were morphologically analyzed and quantified (Figure 8). We recorded that in animals treated with 6-OHDA, 68% of CEP neurons degenerated.
Figure 8 Effects of 4 and 5 on 6-OHDA-induced neurodegeneration in C. elegans. Animals were treated with 4 or 5 (5 μM) in the presence of 6-OHDA (5 mM) for 30 min. At the end of incubation, treated animals were placed on fresh agar plates for 72 h and then visualized as described in the Materials and Methods section. (A) In nontreated vtIs7 [pdat-1::GFP] transgenic animals, dopaminergic neurons express GFP, with two of the four CEP cell bodies (white arrows) and relative dendrites (arrowheads) visible in this focal plane in the head. (B) 6-OHDA treatment causes the degeneration of CEP dendrites (empty arrowheads) and two cell bodies (gray arrows), in treated animals. The other two CEP neurons are not visible anymore. (C) Compound 5 cotreatment partially rescues the 6-OHDA-induced toxic effects, with degeneration of one of the CEP dendrites (empty arrowhead) but not the other (arrowhead) and with one CEP cell body still viable (white arrow) and one dying (gray arrow) in this focal plane. […] ADE neurons, which are less affected by 6-OHDA treatment, are also visible but were not scored (asterisks). (D) Quantification of degenerating CEP neurons. Data are expressed as percentages of degenerating neurons and reported as mean ± SEM of at least three independent experiments. […]

Nrf2 = Nrf2 nuclear translocation by Western blotting; type: cell-based, human; conditions: 5 μM; for nuclear translocation of Nrf2: 1, 3 and 6 h; for treatment time of maximum ratio between nuclear and cytosolic Nrf2 levels: 1, 3 and 6 h tested
Experimental: In light of these findings, 4 and 5 emerged as the most promising to be further studied regarding their effect on the Nrf2/ARE pathway. […] The maximum ratio between nuclear and cytosolic Nrf2 levels was detected after a 3 h treatment for both compounds, while a slight reduction was observed after 6 h.
Figure 5 Effects of compounds 4 and 5 on the Nrf2/ARE signaling pathway (A and B) and NQO1 gene expression (C) in SH-SY5Y cells. (A) Cells were treated with compounds 4 and 5 (5 μM) for different times (1, 3, and 6 h). Translocation of Nrf2 from the cytosol to the nucleus was evaluated by Western blotting. Data are expressed as a ratio between nuclear Nrf2 and cytoplasmic Nrf2 levels and reported as mean ± SEM of at least three independent experiments. (B) Cells were treated with compounds 4 and 5 (5 μM) and DMF (5 μM) for 6 h. The Nrf2/ARE binding activity was determined by an ELISA assay. Results are expressed as fold increase versus untreated cells and reported as mean ± SEM of at least three independent experiments (** p < 0.01 and * p < 0.05 versus untreated cells at the t-test). (C) Cells were treated with compounds 4 and 5 (5 μM) for different times (6, 12, and 24 h). The NQO1 expression was determined by RT-PCR. Results are expressed as the relative normalized expression and reported as mean ± SEM of at least three independent experiments (*** p < 0.001 versus untreated cells at one-way ANOVA with the Dunnett post hoc test).

## CCOC(=O)/C=C/C(C(=O)/C=C/c1ccc(OC)cc1)=C(O)\C=C\c1ccc(OCc2ccccc2)cc1 [Compound 5, Ethyl (2E,4Z,6E)-7-(4-(Benzyloxy)phenyl)-5-hydroxy-4-((E)-3-(4-methoxyphenyl)acryloyl)hepta-2,4,6-trienoate]
SH-SY5Y cells
  prevention of Aβ1–42 oligomers-induced cell death: failed to prevent Aβ1–42 oligomers-induced cell death
[1]
  degenerating CEP neurons: 55%
  rescue of the 6-OHDA-induced degeneration phenotype: partial rescue
Nrf2
  nuclear translocation of Nrf2: induce the nuclear translocation of Nrf2
  treatment time of maximum ratio between nuclear and cytosolic Nrf2 levels: 3 h

## CCOC(=O)/C=C/C(C(=O)/C=C/c1ccc(OC)cc1)=C(O)\C=C\c1ccc(OC)cc1 [Compound 4, Ethyl (2E,4Z,6E)-5-Hydroxy-7-(4-methoxyphenyl)-4-((E)-3-(4-methoxyphenyl)acryloyl)hepta-2,4,6-trienoate]
SH-SY5Y cells
  prevention of Aβ1–42 oligomers-induced cell death: failed to prevent Aβ1–42 oligomers-induced cell death
[1]
  degenerating CEP neurons: 67%
  rescue of the 6-OHDA-induced degeneration phenotype: no rescue
Nrf2
  nuclear translocation of Nrf2: induce the nuclear translocation of Nrf2
  treatment time of maximum ratio between nuclear and cytosolic Nrf2 levels: 3 h
